Reference: patent US5585491A, “Antibacterial agents” (Otsuka Pharmaceutical Co., Ltd., priority 1995, dated 1996)
Values after ≈ are worked out from the molar mass of the structure shown. Like-named read-outs stand apart in the source and are kept apart here.

Legend:
Assay in all cases: In vitro antibacterial activity, microtitration dilution method (MIC)
Type in all cases: cell-based
Proteus rettgeri M 1771 = conditions: Providencia rettgeri, M1771; Proteus rettgeri M 1771, microtitration dilution; read-out: Minimal Inhibitory Concentration MIC
Excerpt: (§1) Agents & Chemoth., 6, 124 (1974), which is incorporated herein by reference.

[1] = system: Pseudomonas aeruginosa UI-18; conditions: UI18; Pseudomonas aeruginosa UI-18, microtitration dilution; read-out: Minimal Inhibitory Concentration MIC
Excerpt: as §1

[2] = system: Staphylococcus aureus UC-76
Excerpt: as §1

[3] = system: Klebsiella pneumoniae MGH-2
Excerpt: as §1

[4] = system: Streptococcus faecalis MGH-2; conditions: Enterococcus faecalis
Excerpt: as §1

[5] = system: Streptococcus pneumoniae SV-1
Excerpt: as §1

[6] = system: Staphylococcus aureus H 228; conditions: H228; Staphylococcus aureus H 228, microtitration dilution; read-out: Minimal Inhibitory Concentration MIC
Excerpt: (§2) The compounds of the invention display antibacterial activity when tested by the microtitration dilution method as described in Heifetz, et al, Antimicr. Agents & Chemoth., 6, 124 (1974), which is incorporated herein by reference. By use of this method, the followed minimum inhibitory concentration values (MICs in μg/mL) were obtained for representative compounds of the invention.

[7] = system: Streptococcus pyogenes C-203; conditions: C203; Streptococcus pyogenes C-203, microtitration dilution; read-out: Minimal Inhibitory Concentration MIC
Excerpt: as §2

[8] = system: Enterobacter cloacae MA 2646
Excerpt: as §2

Escherichia coli Vogel = conditions: read-out: Minimal Inhibitory Concentration MIC
Excerpt: as §2

[9] = UC76, Staphylococcus aureus UC-76, microtitration dilution, read-out: Minimal Inhibitory Concentration MIC
[10] = MGH2, Klebsiella pneumoniae MGH-2, microtitration dilution, read-out: Minimal Inhibitory Concentration MIC
[11] = MGH2, Streptococcus faecalis MGH-2, microtitration dilution, read-out: Minimal Inhibitory Concentration MIC
[12] = SV1, Streptococcus pneumoniae SV-1, microtitration dilution, read-out: Minimal Inhibitory Concentration MIC
[13] = MA2646, Enterobacter cloacae MA 2646, microtitration dilution, read-out: Minimal Inhibitory Concentration MIC
[14] = Escherichia coli Vogel, microtitration dilution
[15] = Enterobacter cloacae, MA2646, read-out: Minimal Inhibitory Concentration MIC
[16] = Staphylococcus aureus, UC76, read-out: Minimal Inhibitory Concentration MIC

Compound	MIC (Proteus rettgeri M 1771) [µg/mL]	MIC [1] [µg/mL]	MIC [2, 9] [µg/mL]	MIC [3, 10] [µg/mL]	MIC [4, 11] [µg/mL]	MIC [5, 12] [µg/mL]	MIC [6] [µg/mL]	MIC [7] [µg/mL]	MIC [8, 13] [µg/mL]	MIC (Escherichia coli Vogel; [14]) [µg/mL]	MIC [8, 15] [µg/mL]	MIC [2, 16] [µg/mL]	MIC (Escherichia coli Vogel; Escherichia coli) [µg/mL]	MIC ([4]; MGH2, read-out: Minimal Inhibitory Concentration MIC) [µg/mL]	MIC ([5]; Streptococcus pneumoniae, SV1, read-out: Minimal Inhibitory Concentration MIC) [µg/mL]	MIC ([3]; Klebsiella pneumoniae, MGH2, read-out: Minimal Inhibitory Concentration MIC) [µg/mL]
Cc1c(F)c(N2CCNC(C)C2)cc2c1c(=O)c(C(=O)O)cn2C1CC1 (centres unmarked) [Ex. 7, 1-Cyclopropyl-6-fluoro-1,4-dihydro-5-methyl-7-(3-methyl-1-piperazinyl)-4-oxo-3-quinolinecarboxylic acid]	0.2 (≈ 0.556 µM)	0.8 (≈ 2.23 µM)	0.025 (≈ 0.0696 µM)	0.05 (≈ 0.139 µM)	0.1 (≈ 0.278 µM)	0.025 (≈ 0.0696 µM)	0.1 (≈ 0.278 µM)	0.05 (≈ 0.139 µM)	0.025 (≈ 0.0696 µM)	0.013 (≈ 0.0362 µM)						
Cc1c(F)c(N2CCC(N)C2)cc2c1c(=O)c(C(=O)O)cn2C1CC1 (centres unmarked) [Ex. 8, 7-(3-Amino-1-pyrrolidinyl)-1-cyclopropyl-6-fluoro-1,4-dihydro-5-methyl-4-oxo-3-quinolinecarboxylic acid]	0.1 (≈ 0.29 µM)	0.4 (≈ 1.16 µM)	0.025 (≈ 0.0724 µM)	0.1 (≈ 0.29 µM)	0.4 (≈ 1.16 µM)	0.013 (≈ 0.0376 µM)	0.1 (≈ 0.29 µM)	0.025 (≈ 0.0724 µM)		0.025 (≈ 0.0724 µM)	0.05 (≈ 0.145 µM)					
Cc1c(F)c(N2CCC(C)(CN)C2)cc2c1c(=O)c(C(=O)O)cn2C1CC1 (centres unmarked) [Ex. 9, 7-[3-(Aminomethyl)-3-methyl-1-pyrrolidinyl]-1-cyclopropyl-6-fluoro-1,4-dihydro-5-methyl-4-oxo-3-quinolinecarboxylic acid]	0.8 (≈ 2.14 µM)	1.6 (≈ 4.28 µM)	0.006 (≈ 0.0161 µM)	0.4 (≈ 1.07 µM)	0.1 (≈ 0.268 µM)	0.006 (≈ 0.0161 µM)	0.025 (≈ 0.0669 µM)	0.013 (≈ 0.0348 µM)	0.1 (≈ 0.268 µM)	0.1 (≈ 0.268 µM)						
Cc1c(F)c(N2CCNCC2)c(Cl)c2c1c(=O)c(C(=O)O)cn2C1CC1 [Ex. 10, 8-Chloro-1-cyclopropyl-6-fluoro-1,4-dihydro-5-methyl-4-oxo-7-(1-piperazinyl)-3-quinolinecarboxylic acid]	0.2 (≈ 0.527 µM)	0.2 (≈ 0.527 µM)	0.025 (≈ 0.0658 µM)	0.1 (≈ 0.263 µM)	0.2 (≈ 0.527 µM)	0.1 (≈ 0.263 µM)	0.05 (≈ 0.132 µM)	0.2 (≈ 0.527 µM)		0.025 (≈ 0.0658 µM)	0.05 (≈ 0.132 µM)					
Cc1c(F)c(N2CCC(N)C2)c(Cl)c2c1c(=O)c(C(=O)O)cn2C1CC1 (centres unmarked) [Ex. 11, 7-(3-Amino-1-pyrrolidinyl)-8-chloro-1-cyclopropyl-6-fluoro-1,4-dihydro-5-methyl-4-oxo-3-quinolinecarboxylic acid]	0.05 (≈ 0.132 µM)	0.2 (≈ 0.527 µM)	0.013 (≈ 0.0342 µM)	0.05 (≈ 0.132 µM)	0.05 (≈ 0.132 µM)	0.025 (≈ 0.0658 µM)	0.025 (≈ 0.0658 µM)	0.05 (≈ 0.132 µM)		0.013 (≈ 0.0342 µM)	0.05 (≈ 0.132 µM)					
CCn1cc(C(=O)O)c(=O)c2c(C)c(F)c(N3CCNCC3)c(F)c21 [Ex. 12, 1-Ethyl-6,8-difluoro-1,4-dihydro-5-methyl-4-oxo-7-(1-piperazinyl)-3-quinolinecarboxylic acid]	0.4 (≈ 1.14 µM)	1.6 (≈ 4.55 µM)		0.2 (≈ 0.569 µM)	3.1 (≈ 8.82 µM)	6.3 (≈ 17.9 µM)	0.8 (≈ 2.28 µM)	12.5 (≈ 35.6 µM)			0.05 (≈ 0.142 µM)	0.2 (≈ 0.569 µM)	0.05 (≈ 0.142 µM)			
CCn1cc(C(=O)O)c(=O)c2c(C)c(F)c(N3CCC(N)C3)c(F)c21 (centres unmarked) [Ex. 13, 7-(3-Amino-1-pyrrolidinyl)-1-ethyl-6,8-difluoro-1,4-dihydro-5-methyl-4-oxo-3-quinolinecarboxylic acid]	0.4 (≈ 1.14 µM)	1.6 (≈ 4.55 µM)	0.1 (≈ 0.285 µM)	0.2 (≈ 0.569 µM)			0.4 (≈ 1.14 µM)	3.1 (≈ 8.82 µM)		0.05 (≈ 0.142 µM)	0.05 (≈ 0.142 µM)			0.8 (≈ 2.28 µM)	1.6 (≈ 4.55 µM)	
Cc1c(F)c(N2CCNCC2)c(F)c2c1c(=O)c(C(=O)O)cn2-c1ccc(F)cc1F [Ex. 14, 6,8-Difluoro-1-(2,4-difluorophenyl)-1,4-dihydro-5-methyl-4-oxo-7-(1-piperazinyl)-3-quinolinecarboxylic acid]	0.4 (≈ 0.919 µM)	0.8 (≈ 1.84 µM)	0.05 (≈ 0.115 µM)	0.4 (≈ 0.919 µM)	0.4 (≈ 0.919 µM)	0.4 (≈ 0.919 µM)	0.2 (≈ 0.459 µM)	0.4 (≈ 0.919 µM)	0.1 (≈ 0.23 µM)	0.05 (≈ 0.115 µM)						
Cc1c(F)c(N2CC(C)NC(C)C2)c(F)c2c1c(=O)c(C(=O)O)cn2-c1ccc(F)cc1F (centres unmarked) [Ex. 14a, 6,8-Difluoro-1-(2,4-difluorophenyl)-1,4-dihydro-5-methyl-7-(3,5-dimethyl-1-piperazinyl)-4-oxo-3-quinolinecarboxylic acid]	3.1 (≈ 6.69 µM)	3.1 (≈ 6.69 µM)		1.6 (≈ 3.45 µM)	1.6 (≈ 3.45 µM)	0.8 (≈ 1.73 µM)	0.4 (≈ 0.863 µM)	1.6 (≈ 3.45 µM)	0.4 (≈ 0.863 µM)	0.4 (≈ 0.863 µM)		0.2 (≈ 0.432 µM)				
Cc1c(F)c(N2CCC(N)C2)c(F)c2c1c(=O)c(C(=O)O)cn2-c1ccc(F)cc1F (centres unmarked) [Ex. 15, 7(3-Amino-1-pyrrolidinyl)-6,8-difluoro-1-(2,4-difluorophenyl)-1,4-dihydro-5-methyl-4-oxo-3-quinolinecarboxylic acid]	0.2 (≈ 0.459 µM)	0.8 (≈ 1.84 µM)	0.025 (≈ 0.0574 µM)		0.2 (≈ 0.459 µM)	0.1 (≈ 0.23 µM)	0.05 (≈ 0.115 µM)	0.1 (≈ 0.23 µM)	0.025 (≈ 0.0574 µM)	0.025 (≈ 0.0574 µM)						0.1 (≈ 0.23 µM)
Cc1c(F)c(N2CCNCC2)cc2c1c(=O)c(C(=O)O)cn2-c1ccc(F)cc1F [Ex. 17, 6-Fluoro-1-(2,4-difluorophenyl)-1,4-dihydro-5-methyl-4-oxo-7-(1-piperazinyl)-3-quinolinecarboxylic acid]	0.2 (≈ 0.479 µM)	0.8 (≈ 1.92 µM)	0.025 (≈ 0.0599 µM)	0.1 (≈ 0.24 µM)	0.2 (≈ 0.479 µM)	0.05 (≈ 0.12 µM)	0.1 (≈ 0.24 µM)	0.1 (≈ 0.24 µM)	0.05 (≈ 0.12 µM)	0.05 (≈ 0.12 µM)						
